Paper PMC7555825, “New Insights of the Zn(II)-Induced P2 × 4R Positive Allosteric Modulation: Role of Head Receptor Domain SS2/SS3, E160 and D170” (International Journal of Molecular Sciences, 2020)

How the values were obtained:
[1] = biological target: T1, rP2 × 4R (Rattus norvegicus, UniProt P51577); assay: Short protocol: Zn(II) potentiation of single 10 µM ATP-evoked currents before/after thiol reagent treatment, rP2 × 4R oocytes; format: cell-based; conditions: for effect of alkylator plus Zn(II) treatment on Zn(II)-induced potentiation: 300 µM alkylator + 10 µM Zn(II)
T1 construct: host or cells: Xenopus laevis oocytes (intranuclear plasmid injection, pcDNA3)
T1 sequence (P51577 1-388): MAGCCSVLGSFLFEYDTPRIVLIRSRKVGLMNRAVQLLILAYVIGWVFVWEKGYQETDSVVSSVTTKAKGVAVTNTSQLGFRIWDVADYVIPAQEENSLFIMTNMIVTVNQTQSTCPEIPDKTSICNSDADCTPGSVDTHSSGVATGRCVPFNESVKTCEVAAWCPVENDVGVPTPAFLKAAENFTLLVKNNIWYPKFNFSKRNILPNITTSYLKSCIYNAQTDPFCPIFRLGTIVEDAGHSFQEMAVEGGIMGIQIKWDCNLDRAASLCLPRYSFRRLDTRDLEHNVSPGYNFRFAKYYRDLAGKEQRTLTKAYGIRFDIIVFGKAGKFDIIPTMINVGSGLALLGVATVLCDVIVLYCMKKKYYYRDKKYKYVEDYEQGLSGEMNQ
Experimental: (§1) A simpler and shorter assay to test the Zn(II) potentiation was developed to better assess the loss of Zn(II) modulation elicited by the joint co-treatment of NEM plus Zn(II). […] Ten minutes after alkylator washout, cells were treated with Zn(II) plus NEM or iodoacetamide (IA) for 5 min followed by 20 min of alkylator washout. Next, the P2 × R was tested again to examine the magnitude of the Zn(II) potentiation.
(§2) After 10 min of washout we applied 300 µM NEM, 300 µM IA, 300 µM IAc, or 300 µM DTNB for 5 min in absence or presence of Zn(II) (10 µM for rP2 × 4R and 30 µM for rP2 × 2R).
(§3) After 10 min of washout we applied 300 µM NEM + 10 µM DTT.

[2] = biological target: T2, rP2 × 2R (Rattus norvegicus, UniProt P49653); assay: Short protocol: Zn(II) potentiation of single 10 µM ATP-evoked currents before/after thiol reagent treatment, rP2 × 2R oocytes; format: cell-based; parameters: expressed in transfected cells; host or cells: Xenopus laevis oocytes (intranuclear plasmid injection); conditions: for effect of alkylator plus Zn(II) treatment on Zn(II) potentiation/modulation: 300 µM alkylator + 30 µM Zn(II), 5 min, 20 min washout
T2 sequence (P49653 1-472): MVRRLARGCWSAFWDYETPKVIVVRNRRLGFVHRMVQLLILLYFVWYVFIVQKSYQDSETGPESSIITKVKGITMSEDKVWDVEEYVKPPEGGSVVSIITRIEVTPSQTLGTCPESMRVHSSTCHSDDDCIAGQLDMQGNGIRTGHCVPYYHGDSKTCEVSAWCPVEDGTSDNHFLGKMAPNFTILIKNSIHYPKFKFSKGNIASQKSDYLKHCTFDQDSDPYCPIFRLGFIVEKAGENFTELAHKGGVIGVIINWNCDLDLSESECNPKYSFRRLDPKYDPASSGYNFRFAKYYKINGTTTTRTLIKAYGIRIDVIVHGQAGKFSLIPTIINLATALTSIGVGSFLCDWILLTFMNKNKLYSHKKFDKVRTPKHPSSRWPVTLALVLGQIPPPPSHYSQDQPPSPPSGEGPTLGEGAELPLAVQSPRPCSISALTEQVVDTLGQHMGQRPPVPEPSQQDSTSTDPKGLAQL
Experimental: as §1, §2

[3] = test system: oocytes; assay: Toxicity of DTT to oocytes (loss of holding potential); format: cell-based, Xenopus laevis; conditions: DTT concentrations larger than 100 µM; holding potential lost
Experimental: Larger DTT concentrations were toxic since the oocyte holding potential was lost, a likely acute toxicity indication.
as §3

[4] = biological target: T1, rP2 × 4R; assay: Short protocol: Zn(II) potentiation of single 10 µM ATP-evoked currents before/after thiol reagent treatment, rP2 × 4R oocytes; format: cell-based; conditions: 10, 30, 100 µM DTT
[5] = biological target: T1, rP2 × 4R; parameters: method as in PMID 17962187; conditions: treatment in the absence of Zn(II); cited from earlier work
[6] = biological target: T1, rP2 × 4R; assay: ATP concentration–response curves, two-electrode voltage clamp in oocytes expressing wild type rP2 × 4R; format: cell-based; conditions: NEM plus Zn(II) treatment; irreversible alkylation

In the case of O=C(O)CI [IAc, Iodoacetate], the “effect of alkylator plus Zn(II) treatment on Zn(II)-induced potentiation” value (“effect … on Zn(II)-induced potentiation” below) ([1]; 5 min, 20 min washout) was “neither of the reagents blocked”.

In the case of O=C(O)c1cc(SSc2ccc([N+](=O)[O-])c(C(=O)O)c2)ccc1[N+](=O)[O-] [DTNB, 5,5’-dithiobis-(2-nitrobenzoic) acid], the “effect … on Zn(II)-induced potentiation” value ([1]; 5 min, 20 min washout) was “neither of the reagents blocked”.

With NC(=O)CI [IA, Iodoacetamide] the “ATP-evoked currents after IA plus Zn(II) treatment” value ([1]; 300 µM IA + 10 µM Zn(II), 5 min, 20 min washout) was “not increased”, the “effect … on Zn(II)-induced potentiation” value ([1]; 5 min, 20 min washout) was “abolished the Zn(II)-induced potentiation” and the “effect of alkylator plus Zn(II) treatment on Zn(II) potentiation/modulation” value [2] was “annulled the Zn(II) potentiation”. The “fold enhancement of ATP-evoked currents after treatment” value (shortened to “fold enhancement”) ([2]; after IA + 30 µM Zn(II) treatment) was 8.6 ± 3.3 fold.

For O[C@@H](CS)[C@@H](O)CS (racemic) [DTT, dithiothreitol], the toxicity to oocytes [3] was “toxic”, the “potentiation of 10 µM ATP-evoked currents by co-applied DTT” value [4] was “neither 10, 30, nor 100 µM DTT potentiated the ATP-evoked currents” and the “fold enhancement” value ([1]; after combined 10 µM DTT plus 300 µM NEM treatment, 5 min, 20 min washout) was 3.9 ± 1.2 fold.

In the case of C[N+](C)(C)CCSS(C)(=O)=O [MTSET, 2-(trimethylammonium)ethyl methanethiosulfonate], the “effect of MTSET treatment on Zn(II) potentiation” value [5] is given as “diminish the Zn(II) potentiation”.

For CCN1C(=O)C=CC1=O [NEM, N-ethylmaleimide], the “fold increase of ATP-evoked currents after treatment” value ([1]; 10 µM ATP, after 300 µM NEM plus 10 µM Zn(II) treatment, vs first ATP current) was 4.0 ± 1.0 fold, the “effect … on Zn(II)-induced potentiation” value ([1]; 5 min, 20 min washout) was “abolished the Zn(II)-induced potentiation” and the “effect of alkylator plus Zn(II) treatment on Zn(II) potentiation/modulation” value [2] was “Did Not Annul”. For the same molecule, the “fold enhancement” value ([2]; after NEM + 30 µM Zn(II) treatment) was 3.3 ± 0.5 fold and the “time the lack of metal potentiation endured after NEM treatment” value [6] was “at least 1 h”.
